The values that follow come from US20220002806A1, “BIOMARKER” (ERBER AKTIENGESELLSCHAFT, priority 2018, published 2022).

The subject of this data set is weaned female piglets. As to the kind of experiment: Feeding trial in weaned female piglets: vulva surface, reproductive tract weight, body weight. The note with it: for reproductive tract weight relative to body weight, average (±SD): [reproductive tract (in grams)/body weight (in kg)]*100; for increase of vulva surface compared to the control group: d 26. The format is in vivo, pig. The source says: Weaned female piglets (sow: Landrace×Large White, boar: Pietrain; 30+/−2 days old) were obtained from a local producer and individually tagged. Piglets were housed in slatted floor pens under controlled environmental conditions. After an acclimatization period of seven days, twenty-four female piglets were selected based on both body weight and vulva size, and allocated to one of four groups (6 animals/group). Piglets received either blank feed (negative control; Ctrl) or feed contaminated with ZEN in three increasing concentrations (ZEN low: 0.17 mg/kg diet; ZEN medium: 1.5 mg/kg diet; ZEN high: 4.6 mg/kg diet). During the 28-day experimental period, each treatment group was given free access to water and the assigned diet. The pigs were observed daily and weighed weekly.
Diets were manufactured at BIOMIN AN (Herzogenburg, Austria), and formulated according to the energy and amino acid requirements for piglets. Four different batches were prepared, one control batch and three batches artificially contaminated with ZEN (Fermentek LTD, Israel; purity >99.2%). Homogenous distribution of ZEN within the diets was achieved by preparation of maltodextrin premixes, which contained appropriate amounts of ZEN and were added to the basal feed at an inclusion rate of 0.9% (w/w). Final ZEN concentrations were verified by HPLC-MS (Romer Labs GmbH) and confirmed.
Blood was collected weekly (d 0, 6, 14, 21 and 28) from individual animals by punctuation of the vena cava cranialis (Primavette® EDTA, Kabe Labortechnik GmbH, Nümbrecht-Elsenroth, Deutschland). After centrifugation (1500×g, 20 min), serum samples were stored at −80° C. for later analysis. Vulva length and width were measured at regular intervals with a caliper to determine the dietary ZEN effects. The vulva area was calculated as vulva length×vulva width, as previously reported (Jiang et al. 2011. Journal of animal science, 89, 3008-3015). Eight measurements were done per piglet over the experimental period.
After 28 days of dietary exposure to the experimental diets, pigs were anesthetized by intramuscular injection of ketamine (0.1 mL/kg body weight (b.w.) Narketan®, Vétoquinol GmbH, Ravensburg, Germany) and azaperone (0.03 mL/kg b.w.; Stresnil®, Janssen-Cilag, Neuss, Germany). Subsequently, animals were euthanized by intracardial injection of T61® (Intervet, UnterschleiBheim, Germany; 0.1 ml/kg b.w.). The whole reproductive tract was collected, weighed and examined for any clinical signs. Small pieces of the corpus uteri and the mid-jejunum were dissected, placed into 1 mL of RNAlater, and stored overnight at 4° C. The next day, all the tissue samples were transferred to −80° C. for long-term storage, and until processed for transcriptomics analysis.

On to `C[C@H]1CCCC(=O)CCC/C=C/c2cc(O)cc(O)c2C(=O)O1` [ZEN, (2E,11S)-15,17-dihydroxy-11-methyl-12-oxabicyclo[12.4.0]octadeca-1(18),2,14,16-tetraene-7,13-dione], for which the “days of exposure after which vulva surface was significantly increased” value is, setting by setting: (ZEN high (4.6 mg/kg diet)) “six”; (ZEN medium (1.5 mg/kg diet)) “thirteen”. Further, the “reproductive tract weight relative to body weight, average (±SD)” value runs as follows: (ZEN high (4.6 mg/kg diet), 28 days) 353.4±110.6; (ZEN low (0.17 mg/kg diet), 28 days) 55.8±17.2; (ZEN medium (1.5 mg/kg diet), 28 days) 121.4±43.4. The “increase of vulva surface compared to the control group” value runs as follows: (ZEN high (4.6 mg/kg diet)) “+230%”; (ZEN medium (1.5 mg/kg diet)) “+90%”. Also, the “effect on the body weight of the piglets” value (independent of the concentration (0.17-4.6 mg/kg diet), 28 days) was “no effect”.
